Experimental data from patent publication US20260183411A1, “TARGETING SORTILIN” (priority 2024, published 2026).

Key:
GAPDH mRNA [1] = experiment: GAPDH mRNA knockdown in HEK293 cells overexpressing SORT-1 (RT-qPCR); format: cell-based; conditions: HEK293 + SORT1 − CQ
Procedure: (§1) These GAPDH siRNA-peptide conjugates were then evaluated in HEK293 cells and the neuronal cell line, neuro2A.

GAPDH mRNA [2] = experiment: GAPDH mRNA knockdown in differentiated Neuro-2a cells (RT-qPCR); format: cell-based; conditions: Neuro2a − CQ
Procedure: as §1

In the case of “Maleimide-(bAla)(Sar)(Sar)(Sar)(Sar)APRWDAPLRDPALRQ(B13)(G48) [Peptide 2-GAPDH6-thiol]”, the “GAPDH mRNA % knockdown compared to untreated cells” value (GAPDH mRNA [1]) is reported as 40% and the “GAPDH mRNA % knockdown compared to untreated cells” value (GAPDH mRNA [2]) is reported as 0%.
